{
  "source": "ChEMBL document CHEMBL1201862",
  "about": "“PubChem BioAssay data set” (2004)",
  "test_in_all_cases": "NCI-60 cell line screen, 48 h",
  "key": {"A498": {"tested_on": "A498"}, "A549": {"tested_on": "A549"}, "ACHN": {"tested_on": "ACHN"}, "CAKI-1": {"tested_on": "CAKI-1"}, "CCRF-CEM": {"tested_on": "CCRF-CEM"}, "COLO 205": {"tested_on": "COLO 205"}, "DLD-1": {"tested_on": "DLD-1"}, "DMS-114": {"tested_on": "DMS-114"}, "DMS-273": {"tested_on": "DMS-273"}, "EKVX": {"tested_on": "EKVX"}, "HCC 2998": {"tested_on": "HCC 2998"}, "HCT-116": {"tested_on": "HCT-116"}, "HCT-15": {"tested_on": "HCT-15"}, "HL-60": {"tested_on": "HL-60"}, "HOP-18": {"tested_on": "HOP-18"}, "HOP-62": {"tested_on": "HOP-62"}, "HOP-92": {"tested_on": "HOP-92"}, "HT-29": {"tested_on": "HT-29"}, "IGROV-1": {"tested_on": "IGROV-1"}, "K562": {"tested_on": "K562"}, "KM-20L2": {"tested_on": "KM-20L2"}, "KM12": {"tested_on": "KM12"}, "LOX IMVI": {"tested_on": "LOX IMVI"}, "LXFL 529": {"tested_on": "LXFL 529"}, "M14": {"tested_on": "M14"}, "M19-MEL": {"tested_on": "M19-MEL"}, "MOLT-4": {"tested_on": "MOLT-4"}, "Malme-3M": {"tested_on": "Malme-3M"}, "NCI-H226": {"tested_on": "NCI-H226"}, "NCI-H23": {"tested_on": "NCI-H23"}, "NCI-H460": {"tested_on": "NCI-H460"}, "NCI-H522": {"tested_on": "NCI-H522"}, "OVCAR-3": {"tested_on": "OVCAR-3"}, "OVCAR-4": {"tested_on": "OVCAR-4"}, "OVCAR-5": {"tested_on": "OVCAR-5"}, "OVCAR-8": {"tested_on": "OVCAR-8"}, "RPMI-8226": {"tested_on": "RPMI-8226"}, "RXF 393": {"tested_on": "RXF 393"}, "RXF 631": {"tested_on": "RXF 631"}, "SF-268": {"tested_on": "SF-268"}, "SF-295": {"tested_on": "SF-295"}, "SF-539": {"tested_on": "SF-539"}, "SK-MEL-28": {"tested_on": "SK-MEL-28"}, "SK-MEL-2": {"tested_on": "SK-MEL-2"}, "SK-MEL-5": {"tested_on": "SK-MEL-5"}, "SK-OV-3": {"tested_on": "SK-OV-3"}, "SN12C": {"tested_on": "SN12C"}, "SNB-19": {"tested_on": "SNB-19"}, "SNB-75": {"tested_on": "SNB-75"}, "SNB-78": {"tested_on": "SNB-78"}, "SR": {"tested_on": "SR"}, "SW-620": {"tested_on": "SW-620"}, "TK-10": {"tested_on": "TK-10"}, "U-251": {"tested_on": "U-251"}, "UACC-257": {"tested_on": "UACC-257"}, "UACC-62": {"tested_on": "UACC-62"}, "UO-31": {"tested_on": "UO-31"}, "XF498": {"tested_on": "XF498"}},
  "note": "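Dose response: 5 concentrations. Exposure: 48 h. Format: 96-well plates. Endpoint: linear interpolation; highest concentration if not reached. Here, GI50 denotes the concentration required for 50% inhibition of growth.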 Activity calls are given as the source filed them. No stated cut-off is given here; in the data, active = GI50 up to about 1.1 µM and inactive = higher.",
  "data": [
    {"smiles": "CCOC(=O)C(=O)Nc1c(CC)cccc1C(C)CC", "note": "(stereo not drawn)", "values": [
      {"measurement": "GI50", "setting": "A498", "value": "> 100 µM (inactive)"},
      {"measurement": "GI50", "setting": "A549", "value": "> 100 µM (inactive)"},
      {"measurement": "GI50", "setting": "ACHN", "value": "> 100 µM (inactive)"},
      {"measurement": "GI50", "setting": "CAKI-1", "value": "> 100 µM (inactive)"},
      {"measurement": "GI50", "setting": "CCRF-CEM", "value": "> 100 µM (inactive)"},
      {"measurement": "GI50", "setting": "COLO 205", "value": "> 100 µM (inactive)"},
      {"measurement": "GI50", "setting": "DLD-1", "value": "> 100 µM (inactive)"},
      {"measurement": "GI50", "setting": "DMS-114", "value": "> 100 µM (inactive)"},
      {"measurement": "GI50", "setting": "DMS-273", "value": "> 100 µM (inactive)"},
      {"measurement": "GI50", "setting": "EKVX", "value": "> 100 µM (inactive)"},
      {"measurement": "GI50", "setting": "HCC 2998", "value": "> 100 µM (inactive)"},
      {"measurement": "GI50", "setting": "HCT-116", "value": "> 100 µM (inactive)"},
      {"measurement": "GI50", "setting": "HCT-15", "value": "> 100", "unit": "µM"},
      {"measurement": "GI50", "setting": "HL-60", "value": "> 100 µM (inactive)"},
      {"measurement": "GI50", "setting": "HOP-18", "value": "> 100 µM (inactive)"},
      {"measurement": "GI50", "setting": "HOP-62", "value": "> 100 µM (inactive)"},
      {"measurement": "GI50", "setting": "HOP-92", "value": "> 100 µM (inactive)"},
      {"measurement": "GI50", "setting": "HT-29", "value": "> 100 µM (inactive)"},
      {"measurement": "GI50", "setting": "IGROV-1", "value": "> 100 µM (inactive)"},
      {"measurement": "GI50", "setting": "K562", "value": "> 100 µM (inactive)"},
      {"measurement": "GI50", "setting": "KM-20L2", "value": "> 100 µM (inactive)"},
      {"measurement": "GI50", "setting": "KM12", "value": "> 100 µM (inactive)"},
      {"measurement": "GI50", "setting": "LOX IMVI", "value": "> 100 µM (inactive)"},
      {"measurement": "GI50", "setting": "LXFL 529", "value": "> 100 µM (inactive)"},
      {"measurement": "GI50", "setting": "M14", "value": "> 100 µM (inactive)"},
      {"measurement": "GI50", "setting": "M19-MEL", "value": "> 100 µM (inactive)"},
      {"measurement": "GI50", "setting": "MOLT-4", "value": "> 100 µM (inactive)"},
      {"measurement": "GI50", "setting": "Malme-3M", "value": "> 100 µM (inactive)"},
      {"measurement": "GI50", "setting": "NCI-H226", "value": "> 100 µM (inactive)"},
      {"measurement": "GI50", "setting": "NCI-H23", "value": "> 100 µM (inactive)"},
      {"measurement": "GI50", "setting": "NCI-H460", "value": "> 100 µM (inactive)"},
      {"measurement": "GI50", "setting": "NCI-H522", "value": "> 100 µM (inactive)"},
      {"measurement": "GI50", "setting": "OVCAR-3", "value": "> 100 µM (inactive)"},
      {"measurement": "GI50", "setting": "OVCAR-4", "value": "> 100 µM (inactive)"},
      {"measurement": "GI50", "setting": "OVCAR-5", "value": "> 100 µM (inactive)"},
      {"measurement": "GI50", "setting": "OVCAR-8", "value": "> 100 µM (inactive)"},
      {"measurement": "GI50", "setting": "RPMI-8226", "value": "> 100 µM (inactive)"},
      {"measurement": "GI50", "setting": "RXF 393", "value": "> 100 µM (inactive)"},
      {"measurement": "GI50", "setting": "RXF 631", "value": "> 100 µM (inactive)"},
      {"measurement": "GI50", "setting": "SF-268", "value": "> 100 µM (inactive)"},
      {"measurement": "GI50", "setting": "SF-295", "value": "> 100 µM (inactive)"},
      {"measurement": "GI50", "setting": "SF-539", "value": "> 100 µM (inactive)"},
      {"measurement": "GI50", "setting": "SK-MEL-28", "value": "> 100 µM (inactive)"},
      {"measurement": "GI50", "setting": "SK-MEL-2", "value": "> 100 µM (inactive)"},
      {"measurement": "GI50", "setting": "SK-MEL-5", "value": "> 100 µM (inactive)"},
      {"measurement": "GI50", "setting": "SK-OV-3", "value": "> 100 µM (inactive)"},
      {"measurement": "GI50", "setting": "SN12C", "value": "> 100 µM (inactive)"},
      {"measurement": "GI50", "setting": "SNB-19", "value": "> 100 µM (inactive)"},
      {"measurement": "GI50", "setting": "SNB-75", "value": "> 100 µM (inactive)"},
      {"measurement": "GI50", "setting": "SNB-78", "value": "> 100 µM (inactive)"},
      {"measurement": "GI50", "setting": "SR", "value": "> 100 µM (inactive)"},
      {"measurement": "GI50", "setting": "SW-620", "value": "> 100 µM (inactive)"},
      {"measurement": "GI50", "setting": "TK-10", "value": "> 100 µM (inactive)"},
      {"measurement": "GI50", "setting": "U-251", "value": "> 100 µM (inactive)"},
      {"measurement": "GI50", "setting": "UACC-257", "value": "> 100 µM (inactive)"},
      {"measurement": "GI50", "setting": "UACC-62", "value": "> 100 µM (inactive)"},
      {"measurement": "GI50", "setting": "UO-31", "value": "> 100 µM (inactive)"},
      {"measurement": "GI50", "setting": "XF498", "value": "> 100 µM (inactive)"}
    ]}
  ]
}
